Values of other authors, collected in US20030136407A1, “Liquid composition to be vaporized for inhibiting increase in blood sugar level, vaporizer for the same and use of the same” (priority 1999, published 2003).

System: Ehrlich Ascites Tumour Cells
Conditions: in vitro; Chem. Pharm. Bull. 41(12) 2129-2131 (1993)

For C[C@H]1[C@H](C)CC[C@]2(C(=O)O)CC[C@]3(C)C(=CC[C@@H]4[C@@]5(C)C[C@@H](O)[C@H](O)C(C)(C)[C@@H]5CC[C@]43C)[C@H]12 [corosolic acid], the “activation of the mobility of grape sugar” value is given as “activates the mobility of grape sugar”.
